ChEMBL document CHEMBL1806483, “Discovery and SAR of 2-arylbenzotriazoles and 2-arylindazoles as potential treatments for Duchenne muscular dystrophy” (Bioorg Med Chem Lett, 2011)
Converted amounts (≈) assume the structure as drawn.

test: Upregulation of utrophin transcription in mouse H2K cells at 10 uM after 48 hrs by luciferase reporter assay relative to 2-(4-(diethylamino)phenyl)-6-methyl-2H-benzo[d][1,2,3]triazol-5-amine; assay type: functional, cell-based; settings: not given

SMILES	Activity
CCS(=O)(=O)c1ccc2nn(-c3ccc(Cl)c(Cl)c3)nc2c1	52%
CC(C)S(=O)(=O)c1ccc2cn(-c3ccc(Cl)cc3)nc2c1	54%

test: Aqueous solubility of the compound in 0.01 M phosphate buffered saline at pH 7.4 after 2 hrs by turbidimetric method; assay type: physicochemical; settings: not given

solubility kinetic at 2 h	SMILES
1 µM (≈ 0.315 µg/mL)	CC(C)C(=O)Nc1ccc2nn(-c3ccc(Cl)cc3)nc2c1
3 µM (≈ 0.941 µg/mL)	CC(C)C(=O)Nc1ccc2cn(-c3ccc(Cl)cc3)nc2c1

test: Upregulation of utrophin transcription in mouse H2K cells after 48 hrs by luciferase reporter assay; assay type: functional, cell-based; settings: not given

EC50	SMILES
1.8 µM	CC(=O)Nc1ccc2nn(-c3ccc(Cl)cc3)nc2c1
1.8 µM	CCS(=O)(=O)c1ccc2oc(-c3ccc4ccccc4c3)nc2c1 [EZUTROMID]
0.76 µM	CC(C)C(=O)Nc1ccc2nn(-c3ccc(Cl)cc3)nc2c1
> 30 µM	CCN(CC)c1ccc(-n2nc3cc(C)c(NC(=O)C(C)C)cc3n2)cc1
> 30 µM	CCS(=O)(=O)c1ccc2cn(-c3ccc(Cl)cc3)nc2c1
> 30 µM	CCS(=O)(=O)c1ccc2nn(-c3ccc(Cl)cc3)nc2c1
0.7 µM	CCN(CC)c1ccc(-n2nc3ccc(N)cc3n2)cc1
3.07 µM	Cc1cc2nn(-c3ccc(Cl)cc3)nc2cc1NC(=O)c1cccnc1
1.73 µM	CC(C)C(=O)Nc1ccc2cn(-c3ccc(Cl)cc3)nc2c1
11.7 µM	CS(=O)(=O)c1ccc2nn(-c3ccc(Cl)cc3)nc2c1
> 30 µM	CS(=O)(=O)c1ccc2cn(-c3ccc(Cl)cc3)nc2c1
> 30 µM	Cc1cc2nn(-c3ccc(Cl)cc3)nc2cc1NC(=O)C(C)C
> 30 µM	CCC(=O)Nc1cc2nn(-c3ccc(N(CC)CC)cc3)nc2cc1C
> 30 µM	CCN(CC)c1ccc(-n2nc3cc(C)c(NC(=O)c4ccco4)cc3n2)cc1
> 30 µM	Nc1ccc2nn(-c3ccc(Cl)cc3)nc2c1

test: Half life in human liver microsome by LC-MS/MS analysis; assay type: ADME; settings: liver microsomes

half-life	SMILES
4.85 h	CC(C)C(=O)Nc1ccc2nn(-c3ccc(Cl)cc3)nc2c1
3.3 h	CC(C)C(=O)Nc1ccc2cn(-c3ccc(Cl)cc3)nc2c1

test: Upregulation of utrophin transcription in mouse H2K cells at 3 uM after 48 hrs by luciferase reporter assay relative to 2-(4-(diethylamino)phenyl)-6-methyl-2H-benzo[d][1,2,3]triazol-5-amine; assay type: functional, cell-based; settings: not given

SMILES	Activity
CC(C)C(=O)Nc1ccc2nn(-c3ccc(Cl)c(Cl)c3)nc2c1	87%
CCS(=O)(=O)c1ccc2nn(-c3ccc4ccccc4c3)nc2c1	73%
CS(=O)(=O)c1ccc2nn(-c3ccc4ccccc4c3)nc2c1	63%

test: Upregulation of utrophin mRNA expression in mouse H2K cells after 72 hrs by RT-PCR analysis relative to control; assay type: functional, cell-based; settings: not given

SMILES	Activity
CC(C)C(=O)Nc1ccc2cn(-c3ccc(Cl)cc3)nc2c1	138%
